According to US9586928B2 (The Scripps Research Institute, priority 2011, dated 2017):

Columns and labels:
GST-RORγ = target: T1, GST-RORγ (Homo sapiens, UniProt P51449); assay: RORγ scintillation proximity (SPA) radioligand binding assay, displacement of [3H]-T0901317; settings: for IC50: displacement of 5 nM [3H]-T0901317 from GST-RORγ; for remaining activity at 10 µM: 10 μM compound, read-out: RORγ SPA % bound = % radiolabel bound
T1 construct: 1 μg of GST-RORγ-LBD, 5 nM of [3H]T1317 as radioligand
T1 sequence (P51449 269-508 limits assumed): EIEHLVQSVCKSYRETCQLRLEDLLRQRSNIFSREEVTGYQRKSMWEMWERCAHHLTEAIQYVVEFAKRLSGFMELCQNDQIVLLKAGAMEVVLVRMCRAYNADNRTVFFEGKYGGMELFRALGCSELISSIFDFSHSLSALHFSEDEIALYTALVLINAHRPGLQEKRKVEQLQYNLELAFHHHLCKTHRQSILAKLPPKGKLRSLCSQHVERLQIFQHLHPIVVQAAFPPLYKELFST

RORα = target: T2, RORα (Homo sapiens, UniProt P35398); assay: Gal4-RORα LBD / UAS luciferase cotransfection assay; format: cell-based; settings: 10 μM
T2 construct: expressed in transfected cells; host or cells: HEK293T
T2 sequence (P35398 272-510 limits assumed): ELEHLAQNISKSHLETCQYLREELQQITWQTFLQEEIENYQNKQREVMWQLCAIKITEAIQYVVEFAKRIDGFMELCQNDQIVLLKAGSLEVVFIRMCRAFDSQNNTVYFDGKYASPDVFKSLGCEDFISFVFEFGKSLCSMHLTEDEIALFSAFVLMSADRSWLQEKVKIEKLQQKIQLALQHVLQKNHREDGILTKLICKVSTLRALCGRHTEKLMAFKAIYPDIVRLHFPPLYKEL
Method: (§1) The cells were treated with either DMSO or various compounds as indicated four hours after replating. Following additional 20 hour incubation, luciferase levels were assayed by one-step addition of 20 μL BriteLite (Perkin Elmer) and read using an Envision multilabel plate reader (Perkin Elmer).
(§2) Cotransfection assays were performed as previously described in HEK293 cells (Gal4 cotransfection assay or IL-17 luciferase reporter)[8]. HEK293 and the mouse lymphoma EL4 (ATCC) cells were maintained in DMEM supplemented with 10% FBS plus antibiotics (penicillin and streptomycin; Invitrogen).

RORγ = target: T3, RORγ (Homo sapiens, UniProt P51449); assay: Gal4-RORγ LBD / UAS luciferase cotransfection assay; format: cell-based; settings: for RORγ repression, fold change over DMSO: 10 μM
T3 construct: expressed in transfected cells; host or cells: HEK293T
T3 sequence (P51449 269-508 limits assumed): T1 sequence (P51449 269-508 limits assumed)
Method: as §1, §2

VP16 = assay: Gal4 DBD-VP16 / UAS luciferase control assay; format: cell-based; settings: 10 μM
Method: as §1

LXR = target: T4, LXR (Homo sapiens, UniProt Q13133); assay: Gal4-LXRα / UAS luciferase cotransfection assay; format: cell-based; settings: 10 μM
T4 sequence (Q13133 209-447 limits assumed): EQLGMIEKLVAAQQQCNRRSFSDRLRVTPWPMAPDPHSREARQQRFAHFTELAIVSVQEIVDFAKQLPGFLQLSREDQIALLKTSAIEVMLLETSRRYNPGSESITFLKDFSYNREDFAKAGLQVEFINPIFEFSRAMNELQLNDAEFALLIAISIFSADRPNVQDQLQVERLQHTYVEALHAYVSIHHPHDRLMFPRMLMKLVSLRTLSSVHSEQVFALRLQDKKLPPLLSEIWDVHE
Method: as §1, §2

Structure (SMILES) | IC50 (GST-RORγ) | RORα repression, fold change over DMSO (RORα) | IC50 (RORγ; Gal4 cotransfection) | VP16 repression, fold change over DMSO (VP16) | LXR activation, fold change over DMSO (LXR) | remaining activity at 10 µM (GST-RORγ) | RORγ repression, fold change over DMSO (RORγ)
OC(c1ccc(-c2ccc(CN3CCN(Cc4ccncc4)CC3)cc2)cc1)(C(F)(F)F)C(F)(F)F [Compound 1, 1,1,1,3,3,3-Hexafluoro-2-(4′-((4-(pyridin-4-ylmethyl)piperazin-1-yl)methyl)-[1,1′-biphenyl]-4-yl)propan-2-ol] | 150 nM | 1 fold change over DMSO | 400 nM | 1 fold change over DMSO | 1 fold change over DMSO |  | 
OC(c1ccc(-c2ccc(CN3CCN(C4CC4)CC3)cc2)cc1)(C(F)(F)F)C(F)(F)F [Compound 17, 2-(4′-((4-Cyclopropylpiperazin-1-yl)methyl)-[1,1′-biphenyl]-4-yl)-1,1,1,3,3,3-hexafluoropropan-2-ol] |  | 0.55 fold change over DMSO |  | 0.4 fold change over DMSO | 0.75 fold change over DMSO | 20% | 0.25 fold change over DMSO
Cc1cc(CN2CCN(Cc3ccc(-c4ccc(C(O)(C(F)(F)F)C(F)(F)F)cc4)cc3)CC2)ccn1 [Compound 43, 1,1,1,3,3,3-Hexafluoro-2-(4′-((4-((2-methylpyridin-4-yl)methyl)piperazin-1-yl)methyl)-[1,1′-biphenyl]-4-yl)propan-2-ol] |  | 0.6 fold change over DMSO |  | 0.6 fold change over DMSO | 1 fold change over DMSO |  | 0.1 fold change over DMSO
OC(c1ccc(-c2ccc(CN3CCN(c4ccncc4)CC3)cc2)cc1)(C(F)(F)F)C(F)(F)F [Compound 44, 1,1,1,3,3,3-Hexafluoro-2-(4′-((4-(pyridin-4-yl)piperazin-1-yl)methyl)-[1,1′-biphenyl]-4-yl)propan-2-ol] |  | 0.5 fold change over DMSO |  | 0.3 fold change over DMSO | 1 fold change over DMSO |  | 0.4 fold change over DMSO
OC(c1ccc(-c2ccc(CN3CCN(Cc4ccncc4Br)CC3)cc2)cc1)(C(F)(F)F)C(F)(F)F [Compound 59, 2-(4′-((4-((3-Bromopyridin-4-yl)methyl)piperazin-1-yl)methyl)-[1,1′-biphenyl]-4-yl)-1,1,1,3,3,3-hexafluoropropan-2-ol] | 1100 nM | 0.4 fold change over DMSO |  | 0.4 fold change over DMSO | 4 fold change over DMSO |  | 0.05 fold change over DMSO
OC(c1ccc(-c2ccc(CN3CCC(Cc4ccc5c(c4)OCO5)CC3)cc2)cc1)(C(F)(F)F)C(F)(F)F [Compound 88, 2-(4′-((4-(Benzo[d][1.3]dioxol-5-ylmethyl)piperidin-1-yl)methyl)-[1,1′-biphenyl]-4-yl)-1,1,1,3,3,3-hexafluoropropan-2-ol] |  | 0.6 fold change over DMSO |  | 0.3 fold change over DMSO | 1.3 fold change over DMSO | 35% | 0.2 fold change over DMSO
OC(c1ccc(-c2ccc(CN3CCN(Cc4ccncc4Cl)CC3)cc2)cc1)(C(F)(F)F)C(F)(F)F [Compound 92] |  | 0.7 fold change over DMSO |  | 0.6 fold change over DMSO | 5 fold change over DMSO | 25% | 0.1 fold change over DMSO
OC(c1ccc(-c2ccc(CN3CCN(Cc4ccncc4)CC3)c(Cl)c2)cc1)(C(F)(F)F)C(F)(F)F [Compound 93, 2-(3′-Chloro-4′-((4-(pyridin-4-ylmethyl)piperazin-1-yl)methyl)-[1,1′-biphenyl]-4-yl)-1,1,1,3,3,3-hexafluoropropan-2-ol] |  | 0.4 fold change over DMSO |  | 0.7 fold change over DMSO | 1.5 fold change over DMSO |  | 0.05 fold change over DMSO
Cc1cc(-c2ccc(C(O)(C(F)(F)F)C(F)(F)F)cc2)ccc1CN1CCN(Cc2ccncc2)CC1 [Compound 94, 1,1,1,3,3,3-Hexafluoro-2-(3′-methyl-4′-((4-(pyridin-4-ylmethyl)piperazin-1-yl)methyl)-[1,1′-biphenyl]-4-yl)propan-2-ol] | 230 nM | 0.5 fold change over DMSO |  | 0.8 fold change over DMSO | 0.8 fold change over DMSO |  | 0.05 fold change over DMSO
OC(c1ccc(-c2ccc(CN3CCN(Cc4ccncc4)CC3)cc2F)cc1)(C(F)(F)F)C(F)(F)F [Compound 95, 1,1,1,3,3,3-Hexafluoro-2-(2′-fluoro-4′-((4-(pyridin-4-ylmethyl)piperazin-1-yl)methyl)-[1,1′-biphenyl]-4-yl)propan-2-ol] |  | 0.5 fold change over DMSO |  | 0.7 fold change over DMSO | 5 fold change over DMSO |  | 0.05 fold change over DMSO
COc1cc(-c2ccc(C(O)(C(F)(F)F)C(F)(F)F)cc2)ccc1CN1CCN(Cc2ccncc2)CC1 [Compound 97, 1,1,1,3,3,3-Hexafluoro-2-(3′-methoxy-4′-((4-(pyridin-4-ylmethyl)piperazin-1-yl)methyl)-[1,1′-biphenyl]-4-yl)propan-2-ol] | 1500 nM | 0.5 fold change over DMSO |  | 0.5 fold change over DMSO | 1 fold change over DMSO |  | 0.05 fold change over DMSO
OC(c1ccc(-c2ccc(CN3CCN(Cc4ccncc4)CC3)c(F)c2)cc1)(C(F)(F)F)C(F)(F)F [Compound 98, 1,1,1,3,3,3-Hexafluoro-2-(3′-fluoro-4′-((4-(pyridin-4-ylmethyl)piperazin-1-yl)methyl)-[1,1′-biphenyl]-4-yl)propan-2-ol] | 1500 nM | 0.8 fold change over DMSO |  | 0.65 fold change over DMSO | 2 fold change over DMSO |  | 0.05 fold change over DMSO
O=C(c1ccc(-c2ccc(C(O)(C(F)(F)F)C(F)(F)F)cc2)cc1)N1CCN(Cc2ccncc2)CC1 [Compound 100, (4′-(1,1,1,3,3,3-Hexafluoro-2-hydroxypropan-2-yl)-[1,1′-biphenyl]-4-yl)(4-(pyridin-4-ylmethyl)piperazin-1-yl)methanone] | 1700 nM | 0.6 fold change over DMSO |  | 0.4 fold change over DMSO | 0.8 fold change over DMSO |  | 0.1 fold change over DMSO
OC(c1ccc(-c2ccc(CN3CCN(Cc4c(F)cncc4F)CC3)cc2)cc1)(C(F)(F)F)C(F)(F)F [Compound 101, 2-(4′-((4-((3,5-Difluoropyridin-4-yl)methyl)piperazin-1-yl)methyl)-[1,1′-biphenyl]-4-yl)-1,1,1,3,3,3-hexafluoropropan-2-ol] |  | 0.8 fold change over DMSO |  | 0.75 fold change over DMSO | 4 fold change over DMSO |  | 0.15 fold change over DMSO
OC(c1ccc(-c2ccc(CN3CCC(Nc4ccncc4)CC3)cc2)cc1)(C(F)(F)F)C(F)(F)F [Compound 104, 1,1,1,3,3,3-Hexafluoro-2-(4′-((4-(pyridin-4-ylamino)piperidin-1-yl)methyl)-[1,1′-biphenyl]-4-yl)propan-2-ol] |  | 0.9 fold change over DMSO |  | 0.4 fold change over DMSO | 1.1 fold change over DMSO | 20% | 0.1 fold change over DMSO
OC(c1ccc(-c2ccc(CN3CCN(Cc4cncs4)CC3)cc2)cc1)(C(F)(F)F)C(F)(F)F [Compound 114, 1,1,1,3,3,3-Hexafluoro-2-(4′-((4-(thiazol-5-ylmethyl)piperazin-1-yl)methyl)-[1,1′-biphenyl]-4-yl)propan-2-ol] |  | 0.79 fold change over DMSO |  | 0.92 fold change over DMSO | 0.63 fold change over DMSO | 50% | 0.87 fold change over DMSO
